What was measured:
CK1α = target: T1, CK1α (Homo sapiens, UniProt P48729+Q96SW2); assay: Western blot, degradation of substrate protein in hPBMCs; assay type: cell-based
T1 construct: effects of the compounds of the present disclosure on the expression of target proteins in cells; endogenous in cells; host or cells: human PBMCs (Milecell Biotechnologies)

IKZF1 = target: T2, IKZF1 (Homo sapiens, UniProt Q13422+Q96SW2); assay: as above; assay type: cell-based
T2 construct: effects of the compounds of the present disclosure on the expression of target proteins in cells; endogenous in cells; host or cells: human PBMCs (Milecell Biotechnologies)

IKZF2 = target: T3, IKZF2 (Homo sapiens, UniProt Q96SW2+Q9UKS7); assay: as above; assay type: cell-based
T3 construct: effects of the compounds of the present disclosure on the expression of target proteins in cells; endogenous in cells; host or cells: human PBMCs (Milecell Biotechnologies)

IKZF3 = target: T4, IKZF3 (Homo sapiens, UniProt Q96SW2+Q9UKT9); assay: as above; assay type: cell-based
T4 construct: effects of the compounds of the present disclosure on the expression of target proteins in cells; endogenous in cells; host or cells: human PBMCs (Milecell Biotechnologies)

WEE1 = target: T5, WEE1 (Homo sapiens, UniProt P30291+Q96SW2); assay: as above; assay type: cell-based
T5 construct: effects of the compounds of the present disclosure on the expression of target proteins in cells; endogenous in cells; host or cells: human PBMCs (Milecell Biotechnologies)

GSPT1 = assay: as above; assay type: cell-based, Human
[1] = target: T6, human Cereblon WT GST-tagged protein (Homo sapiens, UniProt Q96SW2); assay: CRBN-binding affinity, HTRF (CEREBLON BINDING kit); conditions: for inhibition at 0.5 µM: read-out: Inhibition Rate at 0.5 µM (%); for inhibition at 2 µM: read-out: Inhibition Rate at 2 µM (%)
T6 construct: purchased CISBIO 64BDCRBNPEH

[2] = 24 hours treatment, compounds at 50 nM and 500 nM (concentration behind the class not stated)
[3] = Western blot, 24 hours of compound treatment, compounds tested at 50 nM and 500 nM (concentration for the table not stated)

T4 sequence (Q9UKT9 whole entry): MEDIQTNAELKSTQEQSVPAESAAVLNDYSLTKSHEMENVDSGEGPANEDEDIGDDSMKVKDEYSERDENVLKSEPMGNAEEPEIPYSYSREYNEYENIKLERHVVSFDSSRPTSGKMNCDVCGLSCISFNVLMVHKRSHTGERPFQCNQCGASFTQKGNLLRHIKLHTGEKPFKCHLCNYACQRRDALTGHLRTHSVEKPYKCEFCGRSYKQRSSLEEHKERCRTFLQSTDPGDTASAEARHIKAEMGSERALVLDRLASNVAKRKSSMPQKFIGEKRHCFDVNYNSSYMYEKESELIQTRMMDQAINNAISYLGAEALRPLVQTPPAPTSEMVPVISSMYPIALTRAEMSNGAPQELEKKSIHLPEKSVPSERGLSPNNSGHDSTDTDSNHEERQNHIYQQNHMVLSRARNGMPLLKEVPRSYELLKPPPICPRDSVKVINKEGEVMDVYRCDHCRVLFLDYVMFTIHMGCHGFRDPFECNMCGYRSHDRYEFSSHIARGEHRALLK
T4 sequence (Q96SW2 whole entry): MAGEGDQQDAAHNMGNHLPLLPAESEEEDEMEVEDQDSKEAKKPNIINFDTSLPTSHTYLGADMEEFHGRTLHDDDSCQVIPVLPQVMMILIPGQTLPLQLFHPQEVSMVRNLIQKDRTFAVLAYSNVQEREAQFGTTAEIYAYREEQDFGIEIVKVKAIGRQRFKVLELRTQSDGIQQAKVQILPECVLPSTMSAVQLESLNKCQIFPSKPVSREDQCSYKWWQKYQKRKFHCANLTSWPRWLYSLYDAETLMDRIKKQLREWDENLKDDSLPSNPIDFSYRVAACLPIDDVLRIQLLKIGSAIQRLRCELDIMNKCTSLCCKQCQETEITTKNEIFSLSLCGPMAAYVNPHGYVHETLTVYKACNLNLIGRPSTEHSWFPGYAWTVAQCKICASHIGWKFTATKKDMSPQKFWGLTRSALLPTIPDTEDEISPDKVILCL
T4 sequence (Q16531 whole entry partner): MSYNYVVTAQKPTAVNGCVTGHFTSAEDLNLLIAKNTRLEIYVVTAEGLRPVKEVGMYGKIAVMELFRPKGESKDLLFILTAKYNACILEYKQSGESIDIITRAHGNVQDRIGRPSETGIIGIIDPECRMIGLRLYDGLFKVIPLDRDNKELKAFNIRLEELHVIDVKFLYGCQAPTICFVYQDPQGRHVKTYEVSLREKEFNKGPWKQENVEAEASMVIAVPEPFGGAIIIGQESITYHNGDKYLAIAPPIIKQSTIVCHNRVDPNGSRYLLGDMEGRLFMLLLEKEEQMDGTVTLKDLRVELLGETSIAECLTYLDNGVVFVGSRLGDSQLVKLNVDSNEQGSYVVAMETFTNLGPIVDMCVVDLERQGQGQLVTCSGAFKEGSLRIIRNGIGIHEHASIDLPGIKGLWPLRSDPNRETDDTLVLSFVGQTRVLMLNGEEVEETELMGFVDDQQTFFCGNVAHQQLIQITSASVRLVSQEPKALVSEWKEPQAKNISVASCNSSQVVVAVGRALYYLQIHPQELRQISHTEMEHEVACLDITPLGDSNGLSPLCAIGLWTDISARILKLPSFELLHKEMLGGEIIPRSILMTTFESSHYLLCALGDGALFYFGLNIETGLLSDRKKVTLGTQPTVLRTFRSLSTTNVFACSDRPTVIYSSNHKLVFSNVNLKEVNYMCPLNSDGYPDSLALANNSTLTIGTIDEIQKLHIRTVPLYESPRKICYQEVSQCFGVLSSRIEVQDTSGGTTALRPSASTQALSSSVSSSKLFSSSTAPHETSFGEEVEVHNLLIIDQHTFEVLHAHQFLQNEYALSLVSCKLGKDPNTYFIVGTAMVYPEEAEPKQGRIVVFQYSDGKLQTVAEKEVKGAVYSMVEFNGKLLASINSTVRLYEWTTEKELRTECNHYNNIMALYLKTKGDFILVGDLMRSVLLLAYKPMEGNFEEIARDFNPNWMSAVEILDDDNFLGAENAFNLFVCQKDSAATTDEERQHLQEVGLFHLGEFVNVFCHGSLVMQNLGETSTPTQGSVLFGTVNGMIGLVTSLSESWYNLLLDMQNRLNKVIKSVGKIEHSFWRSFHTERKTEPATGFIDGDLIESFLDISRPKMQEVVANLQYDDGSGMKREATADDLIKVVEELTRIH
T6 sequence (Q96SW2 whole entry): as the sequence (Q96SW2 whole entry) above
T2 sequence (Q13422 whole entry): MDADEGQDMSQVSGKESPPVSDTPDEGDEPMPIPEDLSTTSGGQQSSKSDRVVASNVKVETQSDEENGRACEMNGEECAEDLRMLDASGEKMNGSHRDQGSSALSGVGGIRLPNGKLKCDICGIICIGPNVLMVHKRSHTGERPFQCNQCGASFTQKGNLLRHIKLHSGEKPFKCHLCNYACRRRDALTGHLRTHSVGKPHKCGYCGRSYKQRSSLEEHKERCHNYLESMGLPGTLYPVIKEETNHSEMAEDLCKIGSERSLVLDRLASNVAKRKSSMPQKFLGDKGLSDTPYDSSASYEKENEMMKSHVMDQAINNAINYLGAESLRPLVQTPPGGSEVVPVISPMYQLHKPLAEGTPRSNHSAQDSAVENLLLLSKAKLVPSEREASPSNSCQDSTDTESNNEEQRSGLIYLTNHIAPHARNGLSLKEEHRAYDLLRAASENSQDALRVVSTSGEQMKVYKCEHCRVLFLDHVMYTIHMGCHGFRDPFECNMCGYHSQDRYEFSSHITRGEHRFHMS
T2 sequence (Q96SW2 whole entry): as the sequence (Q96SW2 whole entry) above
T2 sequence (Q16531 whole entry partner): as the sequence (Q16531 whole entry partner) above
T5 sequence (P30291 whole entry): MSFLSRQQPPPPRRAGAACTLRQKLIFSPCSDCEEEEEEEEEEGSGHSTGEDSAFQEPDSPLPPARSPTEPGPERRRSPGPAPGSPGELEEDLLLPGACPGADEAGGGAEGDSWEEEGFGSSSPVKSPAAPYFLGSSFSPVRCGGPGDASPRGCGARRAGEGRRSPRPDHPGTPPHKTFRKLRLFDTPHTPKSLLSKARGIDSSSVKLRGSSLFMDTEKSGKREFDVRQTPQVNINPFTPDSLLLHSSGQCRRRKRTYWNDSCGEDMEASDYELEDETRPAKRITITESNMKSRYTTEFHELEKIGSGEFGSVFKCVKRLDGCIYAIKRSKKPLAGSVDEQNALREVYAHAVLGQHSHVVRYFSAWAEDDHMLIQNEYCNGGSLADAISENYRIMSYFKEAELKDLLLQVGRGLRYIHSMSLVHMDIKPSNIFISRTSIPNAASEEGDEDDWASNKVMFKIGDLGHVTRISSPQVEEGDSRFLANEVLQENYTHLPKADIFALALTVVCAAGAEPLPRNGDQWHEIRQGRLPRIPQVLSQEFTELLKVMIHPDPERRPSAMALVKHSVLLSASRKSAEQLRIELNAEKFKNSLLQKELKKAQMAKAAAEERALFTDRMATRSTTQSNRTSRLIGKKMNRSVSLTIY
T5 sequence (Q96SW2 whole entry): as the sequence (Q96SW2 whole entry) above
T5 sequence (Q16531 whole entry partner): as the sequence (Q16531 whole entry partner) above
T1 sequence (P48729 whole entry): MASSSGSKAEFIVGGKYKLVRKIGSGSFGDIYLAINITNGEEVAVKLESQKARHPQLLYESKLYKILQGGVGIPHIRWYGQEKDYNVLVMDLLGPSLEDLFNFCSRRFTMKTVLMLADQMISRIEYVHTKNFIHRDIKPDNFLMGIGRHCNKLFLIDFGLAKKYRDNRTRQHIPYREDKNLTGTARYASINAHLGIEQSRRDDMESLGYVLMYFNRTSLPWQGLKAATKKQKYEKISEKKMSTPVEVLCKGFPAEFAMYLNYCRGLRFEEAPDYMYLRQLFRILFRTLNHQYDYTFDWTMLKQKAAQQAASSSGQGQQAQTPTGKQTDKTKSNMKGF
T1 sequence (Q96SW2 whole entry): as the sequence (Q96SW2 whole entry) above
T1 sequence (Q16531 whole entry partner): as the sequence (Q16531 whole entry partner) above
T3 sequence (Q9UKS7 whole entry): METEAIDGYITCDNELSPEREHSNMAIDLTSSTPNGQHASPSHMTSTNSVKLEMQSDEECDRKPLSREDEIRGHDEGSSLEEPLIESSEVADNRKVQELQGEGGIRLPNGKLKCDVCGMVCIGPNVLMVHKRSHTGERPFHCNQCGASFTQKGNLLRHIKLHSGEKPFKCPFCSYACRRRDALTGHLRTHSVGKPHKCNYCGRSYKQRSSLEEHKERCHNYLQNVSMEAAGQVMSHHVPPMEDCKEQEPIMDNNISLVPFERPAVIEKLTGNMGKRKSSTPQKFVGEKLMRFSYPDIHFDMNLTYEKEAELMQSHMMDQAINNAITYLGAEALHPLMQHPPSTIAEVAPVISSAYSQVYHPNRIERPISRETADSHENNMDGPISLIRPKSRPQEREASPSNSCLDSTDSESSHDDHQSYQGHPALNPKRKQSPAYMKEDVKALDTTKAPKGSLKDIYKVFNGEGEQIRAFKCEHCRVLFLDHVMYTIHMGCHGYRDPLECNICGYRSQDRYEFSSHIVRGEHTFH
T3 sequence (Q96SW2 whole entry): as the sequence (Q96SW2 whole entry) above
T3 sequence (Q16531 whole entry partner): as the sequence (Q16531 whole entry partner) above

SMILES	CK1α substrate protein remaining % (CK1α; [2])	IKZF 1 substrate protein remaining % (IKZF1; [2])	IKZF2 substrate protein remaining % (IKZF2; [2])	IKZF3 substrate protein remaining % (IKZF3; [2])	Wee1 substrate protein remaining % (WEE1; [2])	GSPT1 substrate protein remaining % (GSPT1; [2])	inhibition at 0.5 µM [1] [%]	inhibition at 2 µM [1] [%]	CK1α substrate protein remaining % (CK1α; [3])	IKZF 1 substrate protein remaining % (IKZF1; [3])	IKZF2 substrate protein remaining % (IKZF2; [3])	IKZF3 substrate protein remaining % (IKZF3; [3])	Wee1 substrate protein remaining % (WEE1; [3])	GSPT1 substrate protein remaining % (GSPT1; [3])
O=C1CCC(N2Cc3c(CN4CCC(c5ncc6ccsc6n5)CC4)cccc3C2=S)C(=O)N1 (stereo not drawn) [GT-08936, 3-(4-((4-(thieno[2,3-d]pyrimidin-2-yl)piperidin-1-yl)methyl)-1-thioxoisoindolin-2-yl)piperidine-2,6-dione]	B (80%< substrate protein remaining %≤ 100%)	A (0% ≤ substrate protein remaining % ≤ 80%)	B (80%< substrate protein remaining %≤ 100%)	B (80%< substrate protein remaining %≤ 100%)	A (0% ≤ substrate protein remaining % ≤ 80%)	A (0% ≤ substrate protein remaining % ≤ 80%)	60 to 80	80 to 100	–	–	–	–	–	–
O=C1CCC(N2Cc3c(CN4CC=C(c5ccco5)CC4)cccc3C2=S)C(=O)N1 (stereo not drawn) [GT-08311, 3-(4-((4-(furan-2-yl)-3,6-dihydropyridin-1 (2H)-yl)methyl)-1-thioxoisoindolin-2-yl)piperidine-2,6-dione]	B (80%< substrate protein remaining %≤ 100%)	B (80%< substrate protein remaining %≤ 100%)	B (80%< substrate protein remaining %≤ 100%)	B (80%< substrate protein remaining %≤ 100%)	A (0% ≤ substrate protein remaining % ≤ 80%)	B (80%< substrate protein remaining %≤ 100%)	60 to 80	80 to 100	–	–	–	–	–	–
O=C1CCC(N2Cc3c(CN4CCN(c5cncc(Cl)c5Cl)CC4)cccc3C2=S)C(=O)N1 (stereo not drawn) [GT-08724, 3-(4-((4-(4,5-dichloropyridin-3-yl)piperazin-1-yl)methyl)-1-thioxoisoindolin-2-yl)piperidine-2,6-dione]	–	–	–	–	–	–	60 to 80	80 to 100	B (80%< substrate protein remaining %≤ 100%)	B (80%< substrate protein remaining %≤ 100%)	B (80%< substrate protein remaining %≤ 100%)	B (80%< substrate protein remaining %≤ 100%)	A (0% ≤ substrate protein remaining % ≤ 80%)	B (80%< substrate protein remaining %≤ 100%)
O=C1CCC(N2Cc3c(CN4CCN(c5nccc(Cl)c5F)CC4)cccc3C2=S)C(=O)N1 (stereo not drawn) [GT-08803, 3-(4-((4-(4-chloro-3-fluoropyridin-2-yl)piperazin-1-yl)methyl)-1-thioxoisoindolin-2-yl)piperidine-2,6-dione]	–	–	–	–	–	–	60 to 80	80 to 100	B (80%< substrate protein remaining %≤ 100%)	B (80%< substrate protein remaining %≤ 100%)	B (80%< substrate protein remaining %≤ 100%)	B (80%< substrate protein remaining %≤ 100%)	A (0% ≤ substrate protein remaining % ≤ 80%)	B (80%< substrate protein remaining %≤ 100%)
O=C1CCC(N2Cc3c(CN4CCN(c5ncc(Cl)cc5Cl)CC4)cccc3C2=S)C(=O)N1 (stereo not drawn) [GT-08703, 3-(4-((4-(3,5-dichloropyridin-2-yl)piperazin-1-yl)methyl)-1-thioxoisoindolin-2-yl)piperidine-2,6-dione]	–	–	–	–	–	–	53 to 60	60 to 80	B (80%< substrate protein remaining %≤ 100%)	B (80%< substrate protein remaining %≤ 100%)	B (80%< substrate protein remaining %≤ 100%)	B (80%< substrate protein remaining %≤ 100%)	A (0% ≤ substrate protein remaining % ≤ 80%)	B (80%< substrate protein remaining %≤ 100%)
O=C1CCC(N2Cc3cc(CN4C[C@H]5C[C@@H]4CN5C(c4ccccc4)c4ccccc4)ccc3C2=S)C(=O)N1 (stereo partly drawn) [GT-07740, 3-(5-(((1R,4R)-5-benzhydryl-2,5-diazabicyclo[2.2.1]heptan-2-yl)methyl)-1-thioxoisoindolin-2-yl)piperidine-2,6-dione]	–	–	–	–	–	–	53 to 60	80 to 100	B (80%< substrate protein remaining %≤ 100%)	A (0% ≤ substrate protein remaining % ≤ 80%)	A (0% ≤ substrate protein remaining % ≤ 80%)	B (80%< substrate protein remaining %≤ 100%)	B (80%< substrate protein remaining %≤ 100%)	B (80%< substrate protein remaining %≤ 100%)
